Where two headings read alike, the source gives them in different places.
How the values were obtained:
Prostanoid IP (PGI2) = Prostanoid IP (PGI2) (Homo sapiens, UniProt P43119); experiment: CEREP binding profile: IP
Source text: (§1) The CEREP High-throughput profile consists of a broad collection of 80 transmembrane and soluble receptors, ion channels and G-Protein coupled receptors.

Neurokinin NK1 = Neurokinin NK1 (Homo sapiens, UniProt P25103); experiment: CEREP binding profile: NK1
Source text: as §1

Endothelin ETB = molecular target: T1, Endothelin ETB (Homo sapiens, UniProt P24530); experiment: CEREP binding profile: ETB
T1 construct: CEREP
Source text: as §1

[1] = molecular target: T2, Transporters Serotonin 5-HT trans. (Homo sapiens, UniProt P31645); experiment: CEREP binding profile: 5-HT trans.
T2 construct: CEREP (contract panel)
Source text: as §1

Na+ channels Na+-site 2 = experiment: CEREP binding profile: Na+-site 2; details: 10 μM
Source text: as §1

Serotonin 5-HT6 = molecular target: T3, Serotonin 5-HT6 (Homo sapiens, UniProt P50406); experiment: CEREP binding profile: 5-HT6
T3 construct: CEREP (contract panel)
Source text: as §1

Serotonin 5-HT1A = molecular target: T4, Serotonin 5-HT1A (Homo sapiens, UniProt P08908); experiment: CEREP binding profile: 5-HT1A
T4 construct: CEREP (contract panel)
Source text: as §1

Sigma sigma = experiment: CEREP binding profile: sigma; details: 10 μM
Source text: as §1

Dopamine D2S = molecular target: T5, Dopamine D2S (Homo sapiens, UniProt P14416); experiment: CEREP binding profile: D2S
T5 construct: CEREP
T5 sequence (P14416 1-414 isoform P14416-2): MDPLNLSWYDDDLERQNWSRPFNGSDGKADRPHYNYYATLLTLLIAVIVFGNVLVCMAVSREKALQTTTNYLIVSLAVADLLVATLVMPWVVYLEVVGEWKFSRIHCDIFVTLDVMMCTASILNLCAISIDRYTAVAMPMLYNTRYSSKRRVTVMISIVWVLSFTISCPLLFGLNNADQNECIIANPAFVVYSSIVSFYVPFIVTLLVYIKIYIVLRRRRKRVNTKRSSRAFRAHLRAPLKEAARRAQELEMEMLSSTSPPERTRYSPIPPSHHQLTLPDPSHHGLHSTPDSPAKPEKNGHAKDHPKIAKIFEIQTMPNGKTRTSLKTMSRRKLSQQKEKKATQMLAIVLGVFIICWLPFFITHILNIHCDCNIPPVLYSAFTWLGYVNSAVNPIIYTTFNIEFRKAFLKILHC
Source text: as §1

Adrenergic beta1 = molecular target: T6, Adrenergic beta1 (Homo sapiens, UniProt P08588); experiment: CEREP binding profile: beta1
T6 construct: CEREP
Source text: as §1

GABA Cl- channel = experiment: CEREP binding profile: Cl- channel; details: 10 μM
Source text: as §1

Prostanoid EP4 = Prostanoid EP4 (Homo sapiens, UniProt P35408); experiment: CEREP binding profile: EP4
Source text: as §1

K+ channels KV = experiment: CEREP binding profile: KV; details: 10 μM
Source text: as §1

Muscarinic M3 = Muscarinic M3 (Homo sapiens, UniProt P20309); experiment: CEREP binding profile: M3
Sequence of Muscarinic M3 (P20309 whole entry): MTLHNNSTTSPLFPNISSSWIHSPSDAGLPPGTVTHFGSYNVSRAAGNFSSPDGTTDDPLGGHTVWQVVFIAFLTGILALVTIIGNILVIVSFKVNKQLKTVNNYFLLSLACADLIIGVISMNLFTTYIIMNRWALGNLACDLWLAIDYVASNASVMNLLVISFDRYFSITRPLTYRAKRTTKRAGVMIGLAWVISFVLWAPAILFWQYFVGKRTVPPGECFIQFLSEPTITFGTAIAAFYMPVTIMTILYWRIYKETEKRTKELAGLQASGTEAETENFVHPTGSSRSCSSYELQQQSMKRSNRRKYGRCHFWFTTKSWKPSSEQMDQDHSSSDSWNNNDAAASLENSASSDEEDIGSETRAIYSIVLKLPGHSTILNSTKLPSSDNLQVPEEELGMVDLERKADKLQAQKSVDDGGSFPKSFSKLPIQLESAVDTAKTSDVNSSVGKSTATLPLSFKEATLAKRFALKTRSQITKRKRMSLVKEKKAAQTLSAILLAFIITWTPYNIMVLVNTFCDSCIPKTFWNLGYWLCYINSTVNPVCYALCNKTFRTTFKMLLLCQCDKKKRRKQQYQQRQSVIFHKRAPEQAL
Source text: as §1

[2] = molecular target: T7, Calcitonin gene-related CGRP (Homo sapiens, UniProt O60894+Q16602); experiment: CEREP binding profile: CGRP
T7 construct: CEREP
Source text: as §1

Melanocortin MC4 = Melanocortin MC4 (Homo sapiens, UniProt P32245); experiment: CEREP binding profile: MC4
Sequence of Melanocortin MC4 (P32245 whole entry): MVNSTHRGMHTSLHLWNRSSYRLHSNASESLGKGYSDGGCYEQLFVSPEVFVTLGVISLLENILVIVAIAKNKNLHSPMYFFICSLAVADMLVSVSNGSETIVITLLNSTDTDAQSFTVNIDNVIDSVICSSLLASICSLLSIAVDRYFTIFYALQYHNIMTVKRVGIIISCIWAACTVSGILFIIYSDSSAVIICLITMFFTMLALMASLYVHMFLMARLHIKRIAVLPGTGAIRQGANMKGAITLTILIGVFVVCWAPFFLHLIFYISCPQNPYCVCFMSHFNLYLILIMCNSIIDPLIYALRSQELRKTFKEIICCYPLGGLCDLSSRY
Source text: as §1

[3] = molecular target: Opioid and opioid-like delta2 (DOP) (Homo sapiens, UniProt P41143); experiment: CEREP binding profile: delta2; details: 10 μM
Sequence of Opioid and opioid-like delta2 (DOP) (P41143 whole entry): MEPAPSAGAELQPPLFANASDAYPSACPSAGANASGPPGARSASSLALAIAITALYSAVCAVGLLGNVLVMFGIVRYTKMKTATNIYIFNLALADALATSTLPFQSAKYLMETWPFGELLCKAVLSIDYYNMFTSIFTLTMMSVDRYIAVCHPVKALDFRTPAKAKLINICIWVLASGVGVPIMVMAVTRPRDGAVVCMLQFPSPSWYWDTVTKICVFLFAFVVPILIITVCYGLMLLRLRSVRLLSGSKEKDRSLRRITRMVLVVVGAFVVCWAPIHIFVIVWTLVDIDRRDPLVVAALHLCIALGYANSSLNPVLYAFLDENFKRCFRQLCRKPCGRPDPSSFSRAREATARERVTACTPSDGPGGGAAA
Source text: as §1

[4] = molecular target: T8, Steroid nuclear receptors PR (Homo sapiens, UniProt P06401); experiment: Binding: PR
T8 construct: CEREP
T8 sequence (P06401 1-933): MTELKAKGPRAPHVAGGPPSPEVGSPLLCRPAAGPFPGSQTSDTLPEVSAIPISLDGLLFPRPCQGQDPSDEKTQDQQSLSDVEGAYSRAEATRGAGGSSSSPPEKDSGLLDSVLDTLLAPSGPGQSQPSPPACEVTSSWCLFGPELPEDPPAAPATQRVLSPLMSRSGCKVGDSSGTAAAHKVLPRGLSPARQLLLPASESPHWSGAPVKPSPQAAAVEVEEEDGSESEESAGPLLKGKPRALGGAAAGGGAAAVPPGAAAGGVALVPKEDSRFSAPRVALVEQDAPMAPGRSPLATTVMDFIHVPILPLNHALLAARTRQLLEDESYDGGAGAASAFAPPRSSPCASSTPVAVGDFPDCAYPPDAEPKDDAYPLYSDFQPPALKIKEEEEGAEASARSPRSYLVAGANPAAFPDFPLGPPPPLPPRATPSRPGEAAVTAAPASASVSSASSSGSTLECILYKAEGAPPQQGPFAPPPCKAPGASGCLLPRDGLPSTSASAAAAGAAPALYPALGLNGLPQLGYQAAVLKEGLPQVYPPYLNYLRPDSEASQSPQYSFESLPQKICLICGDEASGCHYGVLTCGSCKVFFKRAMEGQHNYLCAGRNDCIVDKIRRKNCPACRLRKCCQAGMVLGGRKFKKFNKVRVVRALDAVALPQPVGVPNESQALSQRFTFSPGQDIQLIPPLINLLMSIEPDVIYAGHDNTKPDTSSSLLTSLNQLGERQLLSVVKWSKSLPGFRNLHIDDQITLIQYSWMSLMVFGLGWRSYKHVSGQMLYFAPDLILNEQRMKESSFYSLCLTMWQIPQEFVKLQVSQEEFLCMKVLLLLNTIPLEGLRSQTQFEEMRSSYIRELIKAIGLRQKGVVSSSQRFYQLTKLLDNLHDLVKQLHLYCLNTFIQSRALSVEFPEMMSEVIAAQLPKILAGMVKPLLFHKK
Source text: as §1

Bradykinin B2 = molecular target: T9, Bradykinin B2 (Homo sapiens, UniProt P30411); experiment: CEREP binding profile: B2
T9 construct: CEREP
T9 sequence (P30411 whole entry): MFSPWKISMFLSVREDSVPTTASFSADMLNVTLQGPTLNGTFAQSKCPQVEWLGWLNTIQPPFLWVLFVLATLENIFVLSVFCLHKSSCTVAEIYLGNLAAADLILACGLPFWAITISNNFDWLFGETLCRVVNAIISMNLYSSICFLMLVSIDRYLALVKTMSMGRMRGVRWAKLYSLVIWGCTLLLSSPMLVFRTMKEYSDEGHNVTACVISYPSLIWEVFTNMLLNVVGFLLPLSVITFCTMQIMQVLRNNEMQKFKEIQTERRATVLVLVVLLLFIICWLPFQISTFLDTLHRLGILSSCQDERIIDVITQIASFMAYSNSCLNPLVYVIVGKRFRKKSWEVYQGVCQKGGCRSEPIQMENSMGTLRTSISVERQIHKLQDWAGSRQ
Source text: as §1

Endothelin ETA = molecular target: T10, Endothelin ETA (Homo sapiens, UniProt P25101); experiment: CEREP binding profile: ETA
T10 construct: CEREP
T10 sequence (P25101 21-427): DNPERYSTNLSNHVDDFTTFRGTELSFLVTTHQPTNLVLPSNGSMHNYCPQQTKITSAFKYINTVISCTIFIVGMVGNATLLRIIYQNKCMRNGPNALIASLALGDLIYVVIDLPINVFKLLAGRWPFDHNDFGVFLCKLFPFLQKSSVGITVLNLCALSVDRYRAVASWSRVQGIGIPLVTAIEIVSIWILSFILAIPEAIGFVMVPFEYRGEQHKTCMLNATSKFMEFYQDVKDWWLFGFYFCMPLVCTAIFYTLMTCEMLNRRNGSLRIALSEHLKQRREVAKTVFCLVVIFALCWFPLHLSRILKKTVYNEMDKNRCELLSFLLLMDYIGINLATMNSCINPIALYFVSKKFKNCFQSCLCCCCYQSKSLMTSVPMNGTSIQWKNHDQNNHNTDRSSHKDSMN
Source text: as §1

Glutamate PCP = experiment: CEREP binding profile: PCP; details: 10 μM
Source text: as §1

[5] = molecular target: T11, Vasoactive intestinal peptide VPAC1 (VIP1) (Homo sapiens, UniProt P32241); experiment: CEREP binding profile: VPAC1
T11 construct: CEREP (contract panel)
T11 sequence (P32241 31-457): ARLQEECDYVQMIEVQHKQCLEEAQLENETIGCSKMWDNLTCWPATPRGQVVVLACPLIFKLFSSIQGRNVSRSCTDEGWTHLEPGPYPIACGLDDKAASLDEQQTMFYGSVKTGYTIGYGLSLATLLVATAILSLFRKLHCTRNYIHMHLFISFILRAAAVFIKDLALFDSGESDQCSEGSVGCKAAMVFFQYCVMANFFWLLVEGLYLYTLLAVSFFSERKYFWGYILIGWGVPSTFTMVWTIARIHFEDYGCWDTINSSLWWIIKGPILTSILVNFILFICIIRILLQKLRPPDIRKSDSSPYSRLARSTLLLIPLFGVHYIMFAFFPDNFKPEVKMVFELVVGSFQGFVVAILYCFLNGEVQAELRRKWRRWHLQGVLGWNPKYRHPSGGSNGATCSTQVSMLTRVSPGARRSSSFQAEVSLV
Source text: as §1

K+ channels SKCa = experiment: CEREP binding profile: SKCa; details: 10 μM
Source text: as §1

[6] = molecular target: T12, Cholecystokinin CCK1 (CCKA) (Homo sapiens, UniProt P32238); experiment: CEREP binding profile: CCK1
T12 construct: CEREP
T12 sequence (P32238 whole entry): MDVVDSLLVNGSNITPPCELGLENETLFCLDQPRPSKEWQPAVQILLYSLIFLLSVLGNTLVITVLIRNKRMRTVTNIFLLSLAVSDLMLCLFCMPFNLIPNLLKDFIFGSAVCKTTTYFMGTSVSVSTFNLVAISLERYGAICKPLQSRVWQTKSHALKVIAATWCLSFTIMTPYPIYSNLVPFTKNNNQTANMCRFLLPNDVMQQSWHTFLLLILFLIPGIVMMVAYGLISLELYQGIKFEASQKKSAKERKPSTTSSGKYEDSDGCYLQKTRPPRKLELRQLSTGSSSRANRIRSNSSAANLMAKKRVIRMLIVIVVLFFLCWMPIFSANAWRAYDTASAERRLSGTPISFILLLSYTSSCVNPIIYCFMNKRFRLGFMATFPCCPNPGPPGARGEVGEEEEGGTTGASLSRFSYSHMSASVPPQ
Source text: as §1

Cannabinoid CB2 = molecular target: T13, Cannabinoid CB2 (Homo sapiens, UniProt P34972); experiment: Binding: CB2
T13 construct: CEREP
T13 sequence (P34972 whole entry): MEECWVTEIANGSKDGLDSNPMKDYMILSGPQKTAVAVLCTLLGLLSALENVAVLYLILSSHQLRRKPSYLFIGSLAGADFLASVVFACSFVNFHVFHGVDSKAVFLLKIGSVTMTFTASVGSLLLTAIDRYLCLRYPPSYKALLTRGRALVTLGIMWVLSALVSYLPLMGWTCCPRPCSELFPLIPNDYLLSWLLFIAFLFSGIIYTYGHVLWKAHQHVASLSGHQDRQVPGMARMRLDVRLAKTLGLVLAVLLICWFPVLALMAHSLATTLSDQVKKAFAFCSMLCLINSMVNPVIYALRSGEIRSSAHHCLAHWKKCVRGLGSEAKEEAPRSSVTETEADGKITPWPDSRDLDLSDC
Source text: as §1

Serotonin 5-HT1B = molecular target: T14, Serotonin 5-HT1B (Rattus norvegicus, UniProt P28564); experiment: CEREP binding profile: 5-HT1B
T14 construct: CEREP (contract panel)
T14 sequence (P28564 whole entry): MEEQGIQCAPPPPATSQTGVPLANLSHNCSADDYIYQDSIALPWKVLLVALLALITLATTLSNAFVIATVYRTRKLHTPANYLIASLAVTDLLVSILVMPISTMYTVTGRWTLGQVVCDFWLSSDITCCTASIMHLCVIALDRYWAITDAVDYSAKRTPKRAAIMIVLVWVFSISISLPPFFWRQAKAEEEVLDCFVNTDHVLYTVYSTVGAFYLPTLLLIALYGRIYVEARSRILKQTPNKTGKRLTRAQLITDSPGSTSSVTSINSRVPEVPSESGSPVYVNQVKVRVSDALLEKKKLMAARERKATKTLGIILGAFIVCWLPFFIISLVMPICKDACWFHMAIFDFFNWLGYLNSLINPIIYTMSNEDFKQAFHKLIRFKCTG
Source text: as §1

Melatonin MT1 (ML1A) = Melatonin MT1 (ML1A) (Homo sapiens, UniProt P48039); experiment: CEREP binding profile: MT1
Sequence of Melatonin MT1 (ML1A) (P48039 whole entry): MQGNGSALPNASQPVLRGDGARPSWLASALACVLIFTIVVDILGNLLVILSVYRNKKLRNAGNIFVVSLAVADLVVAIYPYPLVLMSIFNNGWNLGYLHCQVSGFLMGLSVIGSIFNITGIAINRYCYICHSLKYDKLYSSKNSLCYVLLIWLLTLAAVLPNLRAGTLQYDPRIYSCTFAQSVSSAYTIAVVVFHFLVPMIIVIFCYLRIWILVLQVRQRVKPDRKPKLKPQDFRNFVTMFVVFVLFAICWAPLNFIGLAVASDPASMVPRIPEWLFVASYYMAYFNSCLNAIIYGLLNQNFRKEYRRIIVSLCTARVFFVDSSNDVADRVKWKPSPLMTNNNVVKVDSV
Source text: as §1

Adenosine A1 = molecular target: T15, Adenosine A1 (Homo sapiens, UniProt P30542); experiment: CEREP binding profile: A1
T15 construct: CEREP
T15 sequence (P30542 whole entry): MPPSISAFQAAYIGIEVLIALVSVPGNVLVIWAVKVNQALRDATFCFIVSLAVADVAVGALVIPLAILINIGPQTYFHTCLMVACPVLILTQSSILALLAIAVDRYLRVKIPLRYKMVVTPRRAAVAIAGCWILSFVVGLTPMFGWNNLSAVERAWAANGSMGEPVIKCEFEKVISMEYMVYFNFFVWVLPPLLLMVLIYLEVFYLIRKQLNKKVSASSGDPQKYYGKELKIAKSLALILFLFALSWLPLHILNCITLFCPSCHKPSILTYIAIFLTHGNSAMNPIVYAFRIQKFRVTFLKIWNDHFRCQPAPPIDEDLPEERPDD
Source text: as §1

GABA = experiment: CEREP binding profile: GABA; details: 10 μM
Source text: as §1

Muscarinic M1 = Muscarinic M1 (Homo sapiens, UniProt P11229); experiment: CEREP binding profile: M1
Source text: as §1

**Q.** For `CC(=O)[C@@]1(C)CC[C@H]2[C@@H]3CC=C4C[C@@H](OCc5ccccc5)CC[C@]4(C)[C@H]3CC[C@@]21C` [3Bn17MeP, 3β-benzyloxy, 17α-methyl-pregn-5-en-20-one], which inhibition at 10 µM (Prostanoid IP (PGI2)) is on record?
**A.** 0%

**Q.** What about the inhibition at 10 µM (Neurokinin NK1) of the same compound?
**A.** 8%

**Q.** And the inhibition at 10 µM (Endothelin ETB)?
**A.** -13%

**Q.** What about the inhibition at 10 µM [1] of the same compound?
**A.** 1%

**Q.** What about the “% Inhibition” value (Na+ channels Na+-site 2) of the same compound?
**A.** −12%

**Q.** And the “% Inhibition” value (Serotonin 5-HT6; 10 μM)?
**A.** −1%

**Q.** What about the “% Inhibition” value (Serotonin 5-HT1A; 10 μM) of the same compound?
**A.** 25%

**Q.** What about the Inhibition % (Sigma sigma) of the same compound?
**A.** 9%

**Q.** What about the “% Inhibition” value (Dopamine D2S; 10 μM) of the same compound?
**A.** 6%

**Q.** And the “% Inhibition” value (Adrenergic beta1; 10 μM)?
**A.** 7%

**Q.** And the Inhibition % (GABA Cl- channel)?
**A.** 1%

**Q.** And the inhibition at 10 µM (Prostanoid EP4)?
**A.** 25%

**Q.** And the “% Inhibition” value (K+ channels KV)?
**A.** −15%

**Q.** What about the inhibition at 10 µM (Muscarinic M3) of the same compound?
**A.** 16%

**Q.** What about the inhibition at 10 µM [2] of the same compound?
**A.** -15%

**Q.** What about the inhibition at 10 µM (Melanocortin MC4) of the same compound?
**A.** -10%

**Q.** And the “% Inhibition” value [3]?
**A.** −3%

**Q.** What about the inhibition at 10 µM [4] of the same compound?
**A.** 20%

**Q.** What about the inhibition at 10 µM (Bradykinin B2) of the same compound?
**A.** 0%

**Q.** What about the inhibition at 10 µM (Endothelin ETA) of the same compound?
**A.** 1%

**Q.** And the Inhibition % (Glutamate PCP)?
**A.** 5%

**Q.** What about the inhibition at 10 µM [5] of the same compound?
**A.** -17%

**Q.** And the “% Inhibition” value (K+ channels SKCa)?
**A.** −3%

**Q.** What about the inhibition at 10 µM [6] of the same compound?
**A.** 2%

**Q.** What about the inhibition at 10 µM (Cannabinoid CB2) of the same compound?
**A.** 2%

**Q.** What about the “% Inhibition” value (Serotonin 5-HT1B; 10 μM) of the same compound?
**A.** −15%

**Q.** And the inhibition at 10 µM (Melatonin MT1 (ML1A))?
**A.** -8%

**Q.** And the inhibition at 10 µM (Adenosine A1)?
**A.** -27%

**Q.** What about the Inhibition % (GABA) of the same compound?
**A.** 10%

**Q.** And the inhibition at 10 µM (Muscarinic M1)?
**A.** -25%

**Q.** Which results are given for `CC(=O)[C@H]1CC[C@H]2[C@@H]3CC=C4C[C@@H](O)CC[C@]4(C)[C@H]3CC[C@]12C` [pregnenolone, reference compound]?
**A.** inhibition at 10 µM (Prostanoid IP (PGI2)): -12%; inhibition at 10 µM (Neurokinin NK1): 17%; inhibition at 10 µM (Endothelin ETB): 4%; inhibition at 10 µM ([1]; 5-HT trans., 10 μM, read-out: % Inhibition): 1%; % Inhibition (Na+ channels Na+-site 2): 23%; inhibition at 10 µM (Serotonin 5-HT6): 5%; inhibition at 10 µM (Serotonin 5-HT1A): 12%; Inhibition % (Sigma sigma): 26%; inhibition at 10 µM (Dopamine D2S): 5%; inhibition at 10 µM (Adrenergic beta1): 4%; Inhibition % (GABA Cl- channel): 29%; inhibition at 10 µM (Prostanoid EP4): 21%; % Inhibition (K+ channels KV): −23%; inhibition at 10 µM (Muscarinic M3; M3, 10 μM, read-out: % Inhibition): 2%; inhibition at 10 µM [2]: -12%; inhibition at 10 µM (Melanocortin MC4): -15%; % Inhibition [3]: 9%; inhibition at 10 µM [4]: > 80%; Inhibition % ([4]; 10 μM): 87%; inhibition at 10 µM (Bradykinin B2): -9%; inhibition at 10 µM (Endothelin ETA): -3%; Inhibition % (Glutamate PCP): 5%; inhibition at 10 µM [5]: -10%; % Inhibition (K+ channels SKCa): −8%; inhibition at 10 µM [6]: -30%; inhibition at 10 µM (Cannabinoid CB2; CB2, 10 μM, read-out: % Inhibition): -19%; inhibition at 10 µM (Serotonin 5-HT1B): -28%; inhibition at 10 µM (Melatonin MT1 (ML1A)): 26%; inhibition at 10 µM (Adenosine A1): -25%; Inhibition % (GABA): 10%; inhibition at 10 µM (Muscarinic M1; M1, 10 μM, read-out: % Inhibition): -14%
